From ChEMBL document CHEMBL1201862, “PubChem BioAssay data set” (2004)
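Values below derive from 48-hour exposures of cells grown in 96-well plates, with endpoints linearly interpolated between the two concentrations bracketing the appropriate inhibition level. At the GI50, growth is halved.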 Activity calls are given as the source filed them. Rule as the data show it: active = GI50 up to about 1.1 µM and inactive = higher.

Experiments:
Experiment in all cases: inhibition of tumour cell growth, NCI panel, 48 h
NCI-H226 = tested on: NCI-H226
K562 = tested on: K562
A498 = tested on: A498
SN12C = tested on: SN12C
RPMI-8226 = tested on: RPMI-8226
A549 = tested on: A549
HCT-116 = tested on: HCT-116
KM-20L2 = tested on: KM-20L2
SNB-75 = tested on: SNB-75
OVCAR-3 = tested on: OVCAR-3
NCI-H522 = tested on: NCI-H522
EKVX = tested on: EKVX
HOP-92 = tested on: HOP-92
OVCAR-8 = tested on: OVCAR-8
CAKI-1 = tested on: CAKI-1
SNB-19 = tested on: SNB-19
PC-3 = tested on: PC-3
T47D = tested on: T47D
DU-145 = tested on: DU-145
Hs-578T = tested on: Hs-578T

Measured: GI50

OC1[C@H]([C@H]2CCCC[C@@H]2O)CCC[C@@H]1[C@@H]1CCCC[C@H]1O (stereo not given in full)
inactive: NCI-H226 > 100 µM | K562 > 100 µM | A498 > 100 µM | SN12C > 100 µM | RPMI-8226 > 100 µM | A549 > 100 µM | HCT-116 > 100 µM | KM-20L2 > 100 µM | SNB-75 > 100 µM | OVCAR-3 > 100 µM | NCI-H522 > 100 µM | EKVX > 100 µM | HOP-92 > 100 µM | OVCAR-8 > 100 µM | CAKI-1 > 100 µM | SNB-19 > 100 µM

COc1ccc(NC(=O)C2C(=O)N(c3ccc(OC)cc3)C(=O)/C2=N/O)cc1 (stereo not given)
inactive: NCI-H226 23.8 µM | K562 > 100 µM | A498 30.7 µM | SN12C 26.4 µM | RPMI-8226 > 71.9 µM | A549 33.9 µM | HCT-116 21.6 µM | KM-20L2 48 µM | SNB-75 32.2 µM | OVCAR-3 24.7 µM | NCI-H522 22.7 µM | EKVX 32.2 µM | HOP-92 16.1 µM | OVCAR-8 18 µM | CAKI-1 32.7 µM | SNB-19 29.4 µM

CC1(OCc2ccccc2)C(=O)N2C1N(C(=O)OCc1ccccc1)CC2(C)C (stereo not given)
inactive: NCI-H226 41.4 µM | K562 42.8 µM | A498 56.9 µM | SN12C > 100 µM | RPMI-8226 27.5 µM | A549 38.8 µM | HCT-116 69.8 µM | KM-20L2 55.8 µM | SNB-75 32.4 µM | OVCAR-3 > 100 µM | EKVX 67.8 µM | OVCAR-8 34.8 µM | SNB-19 54.2 µM

O=C(CN1CCN(c2ccccc2)CC1)N1CCc2c([nH]c3ccccc23)C1c1cccnc1 (stereo not given)
inactive: NCI-H226 > 100 µM | K562 > 76.4 µM | A498 > 100 µM | SN12C > 82.6 µM | RPMI-8226 > 100 µM | A549 31.6 µM | HCT-116 14.5 µM | KM-20L2 > 100 µM | SNB-75 6.92 µM | OVCAR-3 64.9 µM | NCI-H522 29.3 µM | EKVX > 100 µM | HOP-92 20.2 µM | OVCAR-8 24.4 µM | CAKI-1 25.3 µM | SNB-19 38.2 µM

Cn1c(=O)ccc2cc(C(=O)c3ccccc3)ccc21
inactive: NCI-H226 21.2 µM | K562 44.1 µM | A498 32.6 µM | SN12C 46.6 µM | RPMI-8226 47.5 µM | A549 71.1 µM | HCT-116 73.5 µM | KM-20L2 73.5 µM | SNB-75 12.3 µM | OVCAR-3 44.4 µM | NCI-H522 20.4 µM | EKVX 34.2 µM | HOP-92 34.8 µM | OVCAR-8 58.6 µM | CAKI-1 39.4 µM | SNB-19 68.1 µM

Cn1nc2ccc3nccc(NCCNCCO)c3c2n1
inactive: NCI-H226 41.2 µM | K562 73.5 µM | SN12C 32.8 µM | RPMI-8226 26.9 µM | A549 40.2 µM | HCT-116 18.2 µM | KM-20L2 25.8 µM | SNB-75 45.2 µM | OVCAR-3 38.3 µM | NCI-H522 37.5 µM | HOP-92 36.3 µM | OVCAR-8 36.4 µM | CAKI-1 63 µM | SNB-19 73.5 µM

CC(=O)/C(=N\O)C(=O)NCc1ccccc1
inactive: NCI-H226 > 100 µM | K562 36.4 µM | A498 > 100 µM | SN12C > 100 µM | RPMI-8226 > 100 µM | A549 > 100 µM | HCT-116 > 100 µM | KM-20L2 > 100 µM | SNB-75 > 100 µM | OVCAR-3 > 100 µM | NCI-H522 > 100 µM | EKVX > 100 µM | HOP-92 > 100 µM | OVCAR-8 > 100 µM | CAKI-1 > 100 µM | SNB-19 > 100 µM

Nc1nc(O)c2c(ncn2CC(O)CO)n1 (stereo not given)
inactive: NCI-H226 > 100 µM | K562 > 100 µM | A498 > 100 µM | SN12C > 100 µM | RPMI-8226 > 100 µM | A549 > 100 µM | HCT-116 > 100 µM | KM-20L2 > 100 µM | SNB-75 > 100 µM | OVCAR-3 > 100 µM | NCI-H522 > 100 µM | EKVX > 100 µM | HOP-92 > 100 µM | OVCAR-8 > 100 µM | CAKI-1 > 100 µM | SNB-19 > 100 µM

c1ccc2c(c1)N=C(c1cccc3ccccc13)CC(c1ccc3c(c1)OCO3)S2 (stereo not given)
inactive: NCI-H226 > 100 µM | K562 > 100 µM | A498 49 µM | SN12C > 100 µM | A549 > 100 µM | HCT-116 > 100 µM | KM-20L2 > 100 µM | SNB-75 > 100 µM | OVCAR-3 > 100 µM | NCI-H522 > 100 µM | EKVX > 100 µM | OVCAR-8 > 100 µM | CAKI-1 > 100 µM | SNB-19 > 100 µM

CCN(CC)C(=O)N1CCN(C=S)CC1
inactive: NCI-H226 > 100 µM | K562 > 100 µM | A498 > 100 µM | SN12C > 100 µM | A549 > 100 µM | HCT-116 > 100 µM | KM-20L2 > 100 µM | SNB-75 > 100 µM | OVCAR-3 > 100 µM | NCI-H522 > 100 µM | EKVX > 100 µM | OVCAR-8 > 100 µM | SNB-19 > 100 µM

[O-][S+](c1ccc(O)cc1)c1ccc(O)cc1
inactive: NCI-H226 > 100 µM | K562 > 100 µM | RPMI-8226 > 100 µM | A549 > 100 µM | HCT-116 > 100 µM | KM-20L2 > 100 µM | SNB-75 > 100 µM | OVCAR-3 > 100 µM | NCI-H522 > 100 µM | EKVX > 100 µM | HOP-92 > 100 µM | CAKI-1 > 100 µM | SNB-19 > 100 µM

CCOC(=O)C(C)(C)Oc1ccc2c(-c3ccc(Cl)cc3)c(-c3ccc(Cl)cc3)c(=O)oc2c1
inactive: NCI-H226 62.2 µM | K562 > 100 µM | A498 > 100 µM | SN12C > 100 µM | RPMI-8226 80 µM | A549 > 100 µM | HCT-116 89.5 µM | KM-20L2 > 100 µM | SNB-75 > 100 µM | OVCAR-3 > 100 µM | EKVX > 100 µM | OVCAR-8 > 100 µM | SNB-19 > 100 µM

CCOc1ccccc1Nc1nc(C)c(C(=O)CC(=O)C(=O)Nc2ccccc2)s1
inactive: NCI-H226 24.3 µM | K562 34.8 µM | A498 88.5 µM | SN12C 34.8 µM | A549 62.8 µM | HCT-116 51.8 µM | KM-20L2 66.4 µM | SNB-75 25.2 µM | OVCAR-3 22.2 µM | NCI-H522 30.9 µM | EKVX 42.4 µM | HOP-92 36.6 µM | OVCAR-8 78.9 µM | CAKI-1 47.8 µM | SNB-19 91.8 µM

O=[N+]([O-])c1ccc(-c2ccc(C3=Nn4c(CNc5ccccc5Cl)nnc4SC3)o2)cc1
inactive: NCI-H226 > 100 µM | K562 58.3 µM | SN12C > 100 µM | RPMI-8226 > 100 µM | A549 > 100 µM | HCT-116 > 100 µM | KM-20L2 > 100 µM | SNB-75 > 100 µM | OVCAR-3 > 100 µM | NCI-H522 > 100 µM | HOP-92 > 100 µM | OVCAR-8 > 100 µM | CAKI-1 > 100 µM | SNB-19 > 100 µM

CC(=O)N1CCC2(C=Nc3ccccc32)CC1
inactive: K562 > 100 µM | A498 > 100 µM | RPMI-8226 > 100 µM | A549 > 100 µM | HCT-116 > 100 µM | KM-20L2 > 100 µM | SNB-75 > 100 µM | OVCAR-3 > 100 µM | EKVX > 100 µM | HOP-92 > 100 µM | OVCAR-8 > 100 µM | CAKI-1 > 100 µM

O=C(Cc1ccccc1)NN1C(=O)C(Cl)C1c1cccc(O)c1 (stereo not given)
inactive: NCI-H226 21.7 µM | K562 6.27 µM | SN12C 18.5 µM | RPMI-8226 2.84 µM | A549 25.1 µM | HCT-116 13.6 µM | KM-20L2 15.1 µM | SNB-75 26.5 µM | OVCAR-3 14.6 µM | NCI-H522 9.23 µM | EKVX 18.6 µM | OVCAR-8 14 µM | CAKI-1 17.9 µM | SNB-19 42.7 µM

COc1cc2cc[n+](C)c(Cc3ccc(Oc4cc(Cc5c6cc(OC)c(OC)cc6cc[n+]5C)ccc4OC)cc3)c2cc1OC
inactive: NCI-H226 > 100 µM | K562 > 100 µM | A498 > 100 µM | SN12C > 100 µM | RPMI-8226 > 100 µM | A549 > 100 µM | PC-3 91.4 µM | T47D > 100 µM | HCT-116 > 100 µM | SNB-75 > 100 µM | OVCAR-3 > 100 µM | NCI-H522 > 100 µM | EKVX > 100 µM | HOP-92 > 100 µM | OVCAR-8 > 100 µM | DU-145 > 100 µM | Hs-578T > 100 µM | CAKI-1 > 100 µM | SNB-19 > 100 µM

Cc1ccc(NC(=O)/C(Cl)=C(/Cl)C(=O)O)cc1
inactive: NCI-H226 31.8 µM | K562 3.57 µM | A498 82.2 µM | SN12C 18.5 µM | RPMI-8226 14.8 µM | A549 69.8 µM | HCT-116 15 µM | KM-20L2 22.4 µM | SNB-75 17.7 µM | OVCAR-3 18.1 µM | NCI-H522 1.9 µM | EKVX 16.1 µM | HOP-92 18.2 µM | CAKI-1 17.3 µM | SNB-19 > 100 µM
